These results are taken from patent US6787569B1, “Therapeutic guanidines” (Cambridge NeuroScience, Inc., priority 1994, dated 2004).

Where a name gives a salt, the structure may show the parent alone. Read-outs that look alike come from different tables or passages of the source.

Series [1] deals with depolarization-induced 3H-glutamate release from brain nerve terminals. The series can be described thus: Inhibition of 3H-glutamate release, high [K+] depolarization, rapid superfusion of synaptosomes. The series is classed as biochemical. The note with it: rat brain synaptosomes; for % Inhibition of ^3H-Glu Rel @ 1 μM: 1 μM compound; for % Inhibition of ^3H-Glu Rel @ 3 μM: 3 μM compound.

Another series has as its system presynaptic Ca channels. The series is described as follows: Inhibition of 45Ca uptake through presynaptic Ca channels in brain synaptosomes. The series is classed as biochemical, mammalian. To be noted: high K+ depolarization-induced 45Ca uptake, read-out: IC50, block of ^45Ca uptake. How it is done: Compounds of the invention were tested to determine their ability to inhibit voltage-activated calcium channels in nerve terminals of mammalian brain. Said voltage-activated calcium channels directly control neurotransmitter release (see Nachsen, D. A. et al., J. Gen Physiol., 79:1065-1087 (1982)). The uptake of ^45Ca into brain synaptosomes was performed by an adaptation of the method of Nachsen and Blaustein (J. Physiol., 361:251-258 (1985)), as previously described [Goldin et al., PCT/US92/01050]. The principle of the method involves opening ion permeation through synaptosomal calcium channels by high K^+-induced depolarization of the synaptosomal preparation. The rapid component of ^45Ca uptake measured by this procedure is mediated by presynaptic calcium channels.
Briefly, synaptosomes are prepared by the method of Hajos (Brain Res., 93:485-489 (1975)). Freshly prepared synaptosomes (8 μl) were suspended In low potassium “LK” buffer (containing 3 mM KCl). Test compounds in 8 μl LK were added to synaptosomes to final concentrations ranging from 0.3 μM to 100 μM, and the mixture was preincubated for 5 minutes at room temperature. ^45Ca uptake was then initiated by adding isotope in either LK or in buffer (“HK”) containing high [potassium] (150 mM KCl). After 5 seconds, the ^45Ca uptake was stopped by adding 0.9 ml quench buffer (LK+10 mM EGTA). This solution was then filtered under vacuum and the filters washed with 15 ml of quench buffer.
Washed filters were subjected to scintillation spectrophotometry to determine the extent of ^45Ca uptake. Net depolarization-induced ^45Ca uptake was determined for each concentration of each compound tested, as the difference between ^45Ca uptake in HK and LK buffers. Results were plotted as % inhibition of depolarization-induced ^45Ca uptake vs. [compound] for each compound tested. Representative IC50 for inhibition of depolarization-induced ^45Ca uptake are presented below in the tables (2a-2d) below which together are identified as Table 2.

The test system of the next series is L-type Ca channels. The series can be described thus: Inhibition of 45Ca uptake through L-type (dihydropyridine-sensitive) calcium channels in GH4C1 pituitary cells. In kind it is cell-based. How it is done: Compounds of the invention representative of each of the major classes of agents claimed herein were tested to determine their ability to inhibit voltage-activated, dihydropyridine-sensitive L-type calcium channels in clonal GH4C1 pituitary cells. Said voltage-activated L-type calcium channels are found in cardiac muscle, vascular smooth muscle, and the cardiac Purkije cell conduction system. They are the sites of action of the major classes of Ca antagonists employed to treat hypertension, angina, cardiac arrhythmias, and related disorders. L-type Ca channels are also the sites of action of certain neuroprotective dihydropyridine Ca antagonists such as nimodipine.
The uptake of ^45Ca into GH4C1 cells was performed by an adaptation of the method of Tan, K. et al. (J. Biol. Chem., 259:418-426 (1984)). The principle of the method involves activating ion permeation through synaptosomal calcium channels by high K^+-induced depolarization of the synaptosomal preparation. The uptake of ^45Ca measured by this procedure is mediated by presynaptic L-type calcium channels, and is sensitive to dihydropyridine, phenylalkylamine, and benzothiazipine Ca antagonists at therapeutically relevant concentrations [Tashjian et al., ibid.]. The adaptation of the aforementioned method involves growing GH4C1 cells in 96-well culture plates, and is designed to provide a rapid and quantitative determination of the potency of various compounds in inhibiting ^45Ca uptake through L-type Ca channels.
GH4 cells, stored in liquid nitrogen, are suspended in 15 ml growth medium (Ham's F-10 medium plus 15% heat-inactivated horse serum and 2.5% heat-inactivated fetal bovine serum). The cells are centrifuged, resuspended, and then added to T-75 flasks containing 12-15 mls Growth Medium, and incubated at 37° C. for approximately 1 week. The cells are them removed from the T75 flask after dissociation from the walls of the flask by treatment for 5 minutes at 37° C. with 1 mg/ml Viocase. The Viocase is decanted, and the cells are resuspended in ˜200 ml of Growth Medium. The cells are then aliquoted (200 μl/well) into each well of several 96 well plates. The cells are then grown under the aforementioned conditions for 3-4 weeks, with replacement of Growth Medium occurring twice per week. Cells are fed growth medium 24 hours before they are employed for ^45Ca uptake determinations.
At the time of the assay, media Is aspirated from each 96-well plate using a manifold designed to allow 50 μL of liquid to remain in each well. Each plate is washed and aspirated twice with a low K^+ buffer solution “LKHBBS” (in mM 5 KCl, 145 NaCl, 10 Hepes, 1 MgCl2, […], 10 glucose, pH 7.4), 200 μl/well. Each plate is incubated for 10 minutes at 37° C., and aspirated as above. To each well of each plate, 50 μl of HBBS containing the drug to be tested in twice the final concentration is added. The plates are incubated for 10 minutes at room temperature. To each well of each plate, 50 μl of either of two solutions are added:
(a) LKHBBS containing 1 μCi of carrier-free ^45Ca, or
(b) HKHBBS (a high K^+ buffer containing 150 mM KCl and no NaCl, but otherwise identical to LKHBBS).
Each plate is then incubated for 5 minutes at room temperature, aspirated as above, and quenched with 200 μl/well of Quench Buffer (Ca-free LKHBBS containing 10 mM Tris-EGTA). Each plate is aspirated and rinsed with Quench Buffer a second time, then carefully aspirated to dryness. To each well of each plate 100 μl of High Safe II scintillation fluid is added. The plates are sealed, shaken, and subjected to scintillation spectrophotometry on a Microbeta 96-well Scintillation Counter (Wallac, Gaithersburg, Md., USA).
Net depolarization-induced ^45Ca uptake was determined for each concentration of each compound tested, as the difference between ^45Ca uptake in HKBBS and LK buffers. Results were plotted as % inhibition of depolarization-induced ^45Ca uptake vs. [compound] for each compound tested.

In series [2] the target is Type II neuronal voltage-activated sodium channels (Rattus norvegicus, UniProt P04775). The series can be described thus: cell-based.
Chain of Type II neuronal voltage-activated sodium channels (P04775 whole entry, the tested form may be a part): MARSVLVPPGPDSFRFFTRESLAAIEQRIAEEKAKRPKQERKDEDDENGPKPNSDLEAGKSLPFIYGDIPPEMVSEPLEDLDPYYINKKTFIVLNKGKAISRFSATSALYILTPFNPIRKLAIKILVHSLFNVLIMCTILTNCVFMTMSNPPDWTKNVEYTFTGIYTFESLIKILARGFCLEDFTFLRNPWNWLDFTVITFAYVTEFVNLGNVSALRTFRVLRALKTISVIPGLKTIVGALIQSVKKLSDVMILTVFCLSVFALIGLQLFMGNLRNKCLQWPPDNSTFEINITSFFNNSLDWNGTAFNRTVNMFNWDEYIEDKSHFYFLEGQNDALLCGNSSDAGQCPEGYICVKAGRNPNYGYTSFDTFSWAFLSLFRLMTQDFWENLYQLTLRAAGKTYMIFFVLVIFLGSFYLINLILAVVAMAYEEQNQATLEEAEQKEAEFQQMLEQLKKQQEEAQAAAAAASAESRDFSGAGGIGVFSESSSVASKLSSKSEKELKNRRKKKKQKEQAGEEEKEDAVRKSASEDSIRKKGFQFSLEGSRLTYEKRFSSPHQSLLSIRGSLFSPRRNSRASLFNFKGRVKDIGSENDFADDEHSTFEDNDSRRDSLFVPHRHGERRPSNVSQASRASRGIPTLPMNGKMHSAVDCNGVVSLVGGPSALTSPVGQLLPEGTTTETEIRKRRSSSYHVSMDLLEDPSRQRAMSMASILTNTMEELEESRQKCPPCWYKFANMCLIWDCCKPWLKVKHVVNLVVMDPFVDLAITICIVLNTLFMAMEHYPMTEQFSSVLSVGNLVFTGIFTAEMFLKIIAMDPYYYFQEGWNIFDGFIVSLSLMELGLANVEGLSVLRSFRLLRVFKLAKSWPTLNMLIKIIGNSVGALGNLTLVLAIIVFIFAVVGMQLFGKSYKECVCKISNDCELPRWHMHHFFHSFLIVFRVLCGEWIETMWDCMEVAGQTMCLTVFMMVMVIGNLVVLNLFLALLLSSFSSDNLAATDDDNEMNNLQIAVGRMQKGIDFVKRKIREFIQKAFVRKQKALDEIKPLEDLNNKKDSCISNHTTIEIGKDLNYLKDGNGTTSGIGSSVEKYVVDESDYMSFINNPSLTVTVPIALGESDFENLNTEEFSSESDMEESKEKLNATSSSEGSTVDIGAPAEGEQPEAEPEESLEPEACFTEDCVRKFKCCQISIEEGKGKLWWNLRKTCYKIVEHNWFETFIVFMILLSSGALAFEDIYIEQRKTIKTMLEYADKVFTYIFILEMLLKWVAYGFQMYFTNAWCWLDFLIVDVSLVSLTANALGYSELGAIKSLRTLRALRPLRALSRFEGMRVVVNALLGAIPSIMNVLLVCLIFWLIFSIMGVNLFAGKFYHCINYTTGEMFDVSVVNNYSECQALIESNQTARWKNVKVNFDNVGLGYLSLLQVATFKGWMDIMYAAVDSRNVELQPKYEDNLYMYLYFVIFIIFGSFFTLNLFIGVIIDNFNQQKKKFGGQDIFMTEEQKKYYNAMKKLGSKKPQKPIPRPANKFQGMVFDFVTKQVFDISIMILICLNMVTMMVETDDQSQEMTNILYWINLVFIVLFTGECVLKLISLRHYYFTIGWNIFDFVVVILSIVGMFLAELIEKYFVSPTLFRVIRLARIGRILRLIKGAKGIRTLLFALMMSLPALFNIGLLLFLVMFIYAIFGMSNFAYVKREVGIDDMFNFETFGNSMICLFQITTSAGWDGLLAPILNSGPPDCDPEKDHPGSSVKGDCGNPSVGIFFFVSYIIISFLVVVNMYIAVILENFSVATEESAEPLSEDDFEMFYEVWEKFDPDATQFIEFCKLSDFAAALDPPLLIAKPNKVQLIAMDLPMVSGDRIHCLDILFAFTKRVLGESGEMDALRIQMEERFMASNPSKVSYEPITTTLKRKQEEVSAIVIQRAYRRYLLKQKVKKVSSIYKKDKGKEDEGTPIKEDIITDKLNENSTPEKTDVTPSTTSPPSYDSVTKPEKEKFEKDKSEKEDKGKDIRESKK
In series [3] the test system is veratridine-induced 3H-glutamate release from brain nerve terminals (voltage-activated presynaptic Na channels). The series can be described thus: Inhibition of veratridine-induced 3H-glutamate release, rapid superfusion of synaptosomes. The series is classed as biochemical, rat.
[4] abbreviates: high K+ depolarization-induced 45Ca uptake, read-out: IC50, block of ^45Ca uptake.
The mark [5] stands for this setting: veratridine (100 μM)-induced, tetrodotoxin-sensitive uptake, CHO cells expressing rat brain Type II Na channels, read-out: IC50, block of ^14C guanidinium uptake.

Turning to `CCC(C)c1ccc(N(Cc2ccc(C(C)(C)C)cc2)C(=N)N)cc1` (stereo not drawn) (as salt: HCl) [Example 1, N-(4-sec-Butylphenyl)-N-(4-tert-butylbenzyl)guanidine.HCl], the melting point lay in the range of 177 to 178 °C.
Same read-out and setting: the same measure for `N=C(Nc1ccc2c3c(cccc13)CC2)NC(c1ccccc1)c1ccccc1` (as salt: HCl) [Example 3, N-(5-Acenaphthyl)-N′-benzhydrylguanidine.HCl]: 225 to 227 °C; for `CCC(C)c1ccc(NC(=N)Nc2ccc(C(C)CC)cc2)cc1` (stereo not drawn) (as salt: HCl) [Example 4, N,N′-bis(4-sec-Butylphenyl)guanidine.HCl]: 113 to 115 °C; for `CCC(C)c1ccc(N(C)C(=N)N(C)c2ccc(C(C)CC)cc2)cc1` (stereo not drawn) (as salt: HCl) [Example 6]: 65 to 66 °C.
On the same count and under the same terms, the same measure for `CC(C)(C)c1ccc(CN(C(=N)N)c2cccc(I)c2)cc1` (as salt: HCl) [Example 48, N-(3-Iodophenyl)-N-(4-tert-butylbenzyl)guanidine.HCl]: 271 to 272 °C; for `CC(C)(C)c1ccc(CN(C(=N)N)c2ccc(Cl)c3ccccc23)cc1` (as salt: HCl) [Example 49, N-(4-Chloro-1-naphthyl)-N-(4-tert-benzyl)guanidine.HCl]: 115 to 117 °C.
As for `CC(C)(C)c1ccc(CN(C(=N)N)c2ccc3c4c(cccc24)CC3)cc1` [Example 2], the “% Inhibition of ^3H-Glu Rel @ 1 μM” value in series [1] worked out at 52%. Also, in series [1], the “% Inhibition of ^3H-Glu Rel @ 3 μM” value came to 61%. In addition, the figures for the half-inhibitory concentration (IC50) (with presynaptic Ca channels; in the series with L-type Ca channels (setting [4]); in series [2] (setting [5])) were 8.1 µM, 2100 nM and 1000 nM, respectively.
Regarding `N=C(Nc1ccc2c3c(cccc13)CC2)NC(c1ccccc1)c1ccccc1` [Example 3, N-(5-Acenaphthyl)-N′-benzhydrylguanidine.HCl], the “% Inhibition of ^3H-Glu Rel @ 3 μM” value in series [1] is listed as 53%. The IC50 in the series with L-type Ca channels (setting [4]) worked out at 2700 nM.
With `CCC(C)c1ccc(NC(=N)Nc2ccc(C(C)CC)cc2)cc1` (stereo not drawn) [Example 4, N,N′-bis(4-sec-Butylphenyl)guanidine.HCl], the “% Inhibition of ^3H-Glu Rel @ 1 μM” value in series [1] is on record as 52%. Also, the “% Inhibition of ^3H-Glu Rel @ 3 μM” value in series [1] is on record as 85%. Further, the results for the half-maximal inhibitory concentration (IC50) (in the series on presynaptic Ca channels; in the series on L-type Ca channels (setting [4]); in series [2] (setting [5])) were 11.2 µM, 2100 nM and 800 nM, respectively.
On to `CCC(C)c1ccc(N(C)C(=N)N(C)c2ccc(C(C)CC)cc2)cc1` (stereo not drawn) [Example 6], for which the “% Inhibition of ^3H-Glu Rel @ 1 μM” value in series [1] is listed as 71%. Moreover, the “% Inhibition of ^3H-Glu Rel @ 3 μM” value in series [1] is on record as 92%. Also, the IC50 stood at 5.9 µM in the series on presynaptic Ca channels, 4300 nM in the series with L-type Ca channels (setting [4]) and 600 nM in series [2].
In the case of `Br.N=C(Nc1ccc2c3c(cccc13)-c1ccccc1-2)Nc1ccc2c3c(cccc13)-c1ccccc1-2` [Example 9, N-N′-Bis(3-fluoroanthenyl)guanidine hydrobromide], the “% Inhibition of ^3H-Glu Rel @ 3 μM (*veratridine-induced glutamate release assay)” value in series [3] was 17* %. Besides, the results for the half-inhibitory concentration (IC50) (in the series with presynaptic Ca channels; in series [2] (setting [5])) were 7.8 µM and 700 nM, respectively.
`CC(C)(C)c1ccc(NC(=N)Nc2ccc(C(C)(C)C)cc2)cc1` [Example 13, N,N′-Bis(4-tort-butylphenyl)guanidine]: the “% Inhibition of ^3H-Glu Rel @ 3 μM” value in series [1] is reported as 70%. For the same molecule, the “% Inhibition of ^3H-Glu Rel @ 1 μM (*veratridine-induced glutamate release assay)” value in series [3] is on record as 62* %. Further, the values for the IC50 (with presynaptic Ca channels; with L-type Ca channels (setting [4]); in series [2] (setting [5])) were 1.5 µM, 4100 nM and 900 nM, respectively.
On to `COc1ccc(NC(=N)Nc2ccc(Cl)c(Cl)c2Cl)c2ccccc12.Cl` [Example 15, N-(4-Methoxy-1-naphthyl)-N′-(2,3,4-trichlorophenyl)guanidine.HCl], for which the “% Inhibition of ^3H-Glu Rel @ 3 μM” value in series [1] came out at 88%. The 50% inhibitory concentration (IC50) was determined as 1.7 µM with presynaptic Ca channels and 1700 nM with L-type Ca channels (setting [4]).
For the molecule `CCC(C)c1ccc(N(Cc2ccccc2)C(=N)N)cc1` (stereo not drawn) [Example 17, N-(4-sec-Butylphenyl)-N-benzylguanidine], the melting point was 65 to 67 °C.
As to `CC(C)c1ccc(CN(C(=N)N)c2ccc3c4c(cccc24)CC3)cc1` [Example 19, N-(5-Acenaphthyl)-N-(4-isopropylbenzyl)guanidine], the melting point fell in the range of 153 to 155 °C. Moreover, the “% Inhibition of ^3H-Glu Rel @ 3 μM (*veratridine-induced glutamate release assay)” value in series [3] (3 μM compound, 50 μM veratridine-induced release, rat brain synaptosomes) was 81* %. In addition, the half-maximal inhibitory concentration (IC50) with L-type Ca channels (setting [4]) worked out at 2100 nM.
As to `COc1ccc([C@@H]2Sc3ccccc3N(CCN(C)C)C(=O)[C@@H]2OC(C)=O)cc1` [diltiazem, reference compound], in the series on L-type Ca channels (read-out: IC50, block of ^45Ca uptake, high K+ depolarization-induced 45Ca uptake), the IC50 is 19700 nM.
